Test results reported in patent US20040116523A1, “Use of c4-c10 acids for preventing gram-negative bacterial infections” (priority 2000, published 2004).

Assays:
[1] = tested on: iagA′-lacZ fusion (S. typhi strain Ty267); experiment: β-galactosidase activity of the iagA′-lacZ fusion in favourable LB medium; format: cell-based; conditions: for β-Galactosidase activity of the iagA′-lacZ fusion (Table VII): fatty acid as sodium salt, control 22022 ± 1177; for β-Galactosidase activity of the iagA′-lacZ fusion (Table VII) / inhibition of the expression of the iagA′-lacZ fusion in S. typhi (in words) / β-galactosidase activity of the iagA′-lacZ fusion (Table II): 5 mM in favourable LB medium, 6 hours at 37° C.; for inhibition of the expression of the iagA′-lacZ fusion in S. typhi (in words): sodium salt; for β-galactosidase activity of the iagA′-lacZ fusion (Table II): control 12134 ± 1811
Protocol: (§1) The favourable LB medium (high osmolarity and concentration of Ca^2+ions) was defined as being the standard LB medium modified so as to have a final NaCl concentration of 300 mM and a final Ca concentration of 5 mM.
Each of the strains described above was cultured at 37° C. on agar or in TCS broth. The P-galactosidase activity was determined using 4-methyl-umbelliferyl-p-D-galactopyranoside sold by the company Sigma, according to the technique of Klarsfeld et al. (Mol. Mibrobiol., 1994, 13, 585-597). The results, expressed in P-galactosidase units (fluorescence per hour and per OD600), represent the mean of the values obtained in at least three independent experiments. The standard deviations were less than 10% of the values presented. […]
The β-galactosidase activity of the iagA′-lacZ fusion was measured after incubation for 6 hours at 37° C. with shaking (200 rpm).
The S. typhi Ty267 strain (iagA′-lacZ fusion) was seeded into favourable LB medium and into favourable LB medium containing the fatty acid to be tested, in the form of its sodium salt, at the final concentration of 5 mM.

[2] = tested on: sipB′-lacZ fusion (S. typhi strain Ty277); experiment: β-galactosidase activity of the sipB′-lacZ fusion in favourable LB medium; format: cell-based; conditions: LB medium with 300 mM NaCl and 1 mM EGTA (depleted of divalent cations) versus favourable LB medium
Protocol: as §1
(§2) Each of the strains described above was cultured at 37° C. on agar or in TCS broth. The P-galactosidase activity was determined using 4-methyl-umbelliferyl-p-D-galactopyranoside sold by the company Sigma, according to the technique of Klarsfeld et al. (Mol. Mibrobiol., 1994, 13, 585-597). The results, expressed in P-galactosidase units (fluorescence per hour and per OD600), represent the mean of the values obtained in at least three independent experiments. The standard deviations were less than 10% of the values presented.
(§3) For this, the S. typhi strains Ty267, Ty272 and Ty277, which carry the iagA′-lacZ, invF′-lacZ and sipB′-lacZ fusions, respectively, (see Table I), were cultured in the favourable LB or unfavourable LB medium.
(§4) The action of these two compounds on the expression of the iagA′-lacZ, invF′-lacZ and sipB′-lacZ fusions was studied by measuring the β-galactosidase activity expressed by these fusions as a function of the time of culturing (samples removed every two hours).

[3] = tested on: invF′-lacZ fusion (S. typhi strain Ty272); experiment: β-galactosidase activity of the invF′-lacZ fusion in favourable LB medium; format: cell-based; conditions: LB medium with 300 mM NaCl and 1 mM EGTA (depleted of divalent cations) versus favourable LB medium
Protocol: as §1, §2, §3, §4

[4] = tested on: Gram-positive or Gram-negative microorganisms; conditions: acid pH (free acid form); cited from earlier work
[5] = tested on: Gram-positive or Gram-negative bacteria; conditions: in vitro, concentration not given; cited from earlier work
[6] = tested on: iagA′-lacZcat fusion in S. typhi strain Ty267; experiment: "Biotype 100" plate screen for carbon-based substrates that repress the iagA′-lacZcat fusion (β-galactosidase activity); format: cell-based; conditions: "Biotype 100" cupule, amount of substrate not known; favourable LB medium; 36 hours at 37° C.; control cupule without substrate 11 250
Protocol: as §2
A “Biotype 100”® plate sold by the company BioMerieux is composed of 100 microcupules. Each micro-cupule contains a dehydrated carbon-based substrate, with the exception of the first cupule, which is a control without substrate (the amount of dehydrated substrate per cupule is not given by the manufacturer).
In the context of the present example, these plates were used to search for carbon-based compounds which would block the expression of the invasion genes in Salmonella.
For this, the S. typhi strain Ty267, which is a derivative of the parental strain Ty2 carrying the iagA′-lacZcat transcriptional fusion (Table I), was cultured in TCS broth for 18 hours at 37° C. with shaking (200 rpm).
This culture was then diluted 100-fold in favourable LB medium (0.6 ml of culture for 60 ml of favourable LB), and then this suspension was used immediately to seed the 100 cupules of a “Biotype 100”® plate, in a proportion of 450 μl of suspension per cupule.
After incubation for 36 hours in an incubator at 37° C., the activity of the iagA′-lacZcat fusion in the Ty267 strain was determined for the culture of each cupule.
By comparing the value of the P-galactosidase activity measured in a cupule containing a carbon-based substrate with that of the control cupule without substrate, it was possible to investigate whether a substrate had no effect on, activated or repressed the expression of the iagA′-lacZcat fusion.
The S. typhi strain Ty267 (iagA′-lacZ fusion), suspended in the favourable LB medium, was used to seed the “Biotype 100”® plates.
The β-galactosidase activity expressed by the iagA′-lacZ fusion was determined for the culture in each cupule. With respect to the β-galactosidase activity measured in the control cupule without substrate (11 250 β-galactosidase units), no substrate caused an increase in the expression of the iagA′-lacZ fusion.

[7] = tested on: Salmonellae; experiment: Bactericidal or bacteriostatic effect on the Salmonellae at neutral pH; format: cell-based, Salmonella

Row | Structure (SMILES) | β-Galactosidase activity of the iagA′-lacZ fusion (Table VII) [1] | inhibition of the expression of the iagA′-lacZ fusion in S. typhi (in words) [1] | further results
1 | CCCCCCC(N)C(=O)O (stereo not shown) [2-Aminocaprylic acid] | 33149 ± 2520 β-galactosidase units | totally blocks the inhibitory activity | 
2 | CCCCCCC(O)C(=O)O (stereo not shown) [2-Hydroxycaprylic acid] | 225 ± 72 β-galactosidase units | does not modify the expression | 
3 | NCCCCCCCC(=O)O [8-Aminocaprylic acid] | 18077 ± 1263 β-galactosidase units | totally blocks the inhibitory activity | 
4 | O=C(O)CCCCCCCO [8-Hydroxycaprylic acid] | 593 ± 49 β-galactosidase units | does not modify the expression | 
5 | CC(=O)O [Acetic acid] | 29265 ± 1692 β-galactosidase units | do not make it possible to inhibit | 
6 | CCCC(=O)O [Butyric acid] | 21225 ± 1741 β-galactosidase units | do not make it possible to inhibit | 
7 | CCCCCC(=O)O [Caproic acid] | 347 ± 21 β-galactosidase units | as strongly as sodium caprylate | 
8 | O=C(O)CN(CCOCCOCCN(CC(=O)O)CC(=O)O)CC(=O)O [EGTA, ethylene glycol bis(β-aminoethyl ether) N,N,N′,N′-tetraacetic acid] |  |  | expression of the sipB′-lacZ fusion [2]: repression; expression of the invF′-lacZ fusion [3]: repression; expression of the iagA′-lacZ fusion ([1]; LB medium with 300 mM NaCl and 1 mM EGTA (depleted of divalent cations) versus favourable LB medium): repression
9 | CCCCCCC(=O)O [Oenanthic acid] | 525 ± 43 β-galactosidase units | as strongly as sodium caprylate | 
10 | CCCCCCCCC(=O)O [Pelargonic acid] | 383 ± 54 β-galactosidase units | as strongly as sodium caprylate | 
11 | CCC(=O)O [Propionic acid] | 14650 ± 1333 β-galactosidase units | do not make it possible to inhibit | 
12 | CCCCC(=O)O [Valeric acid] | 509 ± 91 β-galactosidase units | as strongly as sodium caprylate | 
13 | CCCCCCCCCC(=O)O [decanoic acid] |  |  | bactericidal activity on a great variety of Gram-positive or Gram-negative microorganisms [4]: bactericidal activity
14 | CCCCC/C=C\C/C=C\CCCCCCCC(=O)O [linoleic acid] |  |  | bacteriostatic or bactericidal effect on Gram-positive or Gram-negative bacteria [5]: very effective
15 | CCCCCC(=O)O [n-hexanoic acid] |  |  | bactericidal activity on a great variety of Gram-positive or Gram-negative microorganisms [4]: bactericidal activity
16 | CCCCCCCC/C=C\CCCCCCCC(=O)O [oleic acid] |  |  | bacteriostatic or bactericidal effect on Gram-positive or Gram-negative bacteria [5]: very effective
17 | O=C([O-])CCc1ccccc1.[Na+] [sodium 3-phenylpropionate] |  | inhibit | β-galactosidase activity of the iagA′-lacZ fusion (Table II) [1]: 297 ± 95 β-galactosidase units; β-galactosidase activity expressed by the iagA′-lacZ fusion in the cupule [6]: 166 β-galactosidase units; bactericidal or bacteriostatic effect on the Salmonellae [7]: none of these compounds has any significant bactericidal or bacteriostatic effect
18 | O=C([O-])CCCc1ccccc1.[Na+] [sodium 4-phenylbutyrate] |  | inhibited | β-galactosidase activity of the iagA′-lacZ fusion (Table II) [1]: 198 ± 32 β-galactosidase units; bactericidal or bacteriostatic effect on the Salmonellae [7]: none of these compounds has any significant bactericidal or bacteriostatic effect
19 | O=C([O-])Cc1ccccc1.[Na+] [sodium phenylacetate] |  | inhibit | β-galactosidase activity of the iagA′-lacZ fusion (Table II) [1]: 149 ± 24 β-galactosidase units; β-galactosidase activity expressed by the iagA′-lacZ fusion in the cupule [6]: 81 β-galactosidase units; bactericidal or bacteriostatic effect on the Salmonellae [7]: none of these compounds has any significant bactericidal or bacteriostatic effect
